# Results taken from patent US11987807B2, “Isolated human lung progenitor cells and uses thereof” (THE GENERAL HOSPITAL CORPORATION, priority 2012, dated 2024).
# System: human iPSC and ESC lines
# Assay: Definitive endoderm generation from human iPSC/ESC (FOXA2/SOX17 co-staining)
# Assay type: cell-based
# Details: screen of multiple PI3K inhibitors (LY-294002, ZSTK474, Wortmannin, PI828, NVP-BKM120, PIK-75)
# Experimental: The endoderm is one of the three primary germ cell layers in the embryo. It forms the embryonic gut which in turn gives rise to the epithelia of the lungs and digestive organs. Therefore, the first essential step for directing human iPSC towards a lung lineage is to generate endoderm cells, preferably with high efficiency. […] For example, the current published protocol (Mou et al., 2012; RPMI+2% B27+100 ng/ml TGF-beta agonist Activin A+5 uM LY-294002 PI3K Inhibitor) is effective in several human iPSC and ESC lines with definitive endoderm efficiency higher than 90%. In some “difficult” or “resistant” cell lines, this same protocol generates definitive endoderm that varies between low efficiency (<30%) to medium efficiency (40-70%). […] Therefore, this protocol is much more cost-effective than prior protocols. […]
# This protocol permits a remarkable 90% or greater, including 91%, 92%, 93%, 94%, 95%, 96%, 97%, and even as high as 98% or more, of human iPSC/ESC cells to be converted into definitive endoderm cell as determined by nuclear staining for the transcription factors Foxa2 and Sox17. […] Furthermore, this protocol can be universally applied to multiple cell lines including several “difficult” cell lines that were determined to have low efficiency of definitive endoderm generation. […]
smiles,measurement,value
FC(F)c1nc2ccccc2n1-c1nc(N2CCOCC2)nc(N2CCOCC2)n1 [ZSTK474],potency for definitive endoderm generation,most potent
